Results from article PMC12096674 (Journal of Enzyme Inhibition and Medicinal Chemistry, 2025).
pIC50: −log10 of the molar value. Where two headings read alike, the source gives them in different places.

How the values were obtained:
M^pro of four alpha-CoVs = settings: read-out: IC50 values against all four alpha-CoVs
[1] = tested on: M^pro of ten high-risk CoVs
HCoV-OC43 M^pro = settings: read-out: IC50 HCoV-OC43, cited from earlier work
HCoV-HKU1 M^pro = settings: read-out: IC50 HCoV-HKU1; cited from earlier work
HCoV-NL63 M^pro = settings: read-out: IC50 HCoV-NL63, cited from earlier work

Cn1cnc(Cn2c(=O)[nH]/c(=N\c3cc4cn(C)nc4cc3Cl)n(Cc3cc(Cl)c(F)cc3Oc3ncc(C(F)(F)F)s3)c2=O)n1 [Compound 14, (E)-6-((6-chloro-2-methyl-2H-indazol-5-yl)imino)-1-(5-chloro-4-fluoro-2-((5-(trifluoromethyl)thiazol-2-yl)oxy)benzyl)-3-((1-methyl-1H-1,2,4-triazol-3-yl)methyl)-1,3,5-triazinane-2,4-dione]
pIC50 (M^pro of four alpha-CoVs): > 6.52

Cc1cncc(-n2c(=O)[nH]/c(=N\c3cc4cn(C)nc4cc3Cl)n(Cc3cc(C#N)ccc3Sc3ccc(Cl)s3)c2=O)c1 [Compound 24, (E)-3-((6-((6-Chloro-2-methyl-2H-indazol-5-yl)imino)-3-(5-methylpyridin-3-yl)-2,4-dioxo-1,3,5-triazinan-1-yl)methyl)-4-((5-chlorothiophen-2-yl)thio)benzonitrile]
pIC50 (M^pro of four alpha-CoVs): > 6.52

Cn1cc2cc(/N=c3\[nH]c(=O)n(Cc4ccc[nH]c4=O)c(=O)n3Cc3cc(Cl)c(F)cc3Oc3ccc(C#N)s3)c(Cl)cc2n1 [Compound 25, (E)-5-(4-chloro-2-((6-((6-chloro-2-methyl-2H-indazol-5-yl)imino)-2,4-dioxo-3-((2-oxo-1,2-dihydropyridin-3-yl)methyl)-1,3,5-triazinan-1-yl)methyl)-5-fluoro-phenoxy)thiophene-2-carbonitrile]
pIC50 (M^pro of four alpha-CoVs): > 6.22 | pIC50 ([1]; read-out: IC50 against ten high-risk CoVs): > 6.22 | pIC50 ([1]; read-out: IC50 values for six of the ten CoVs): > 7.00

Cn1cnc(Cn2c(=O)[nH]/c(=N\c3cc4cn(C)nc4cc3Cl)n(Cc3cc(F)c(F)cc3F)c2=O)n1 [S-217622 (1)]
pIC50 (HCoV-OC43 M^pro; reported compound): […] | pIC50 (HCoV-HKU1 M^pro): […] | pIC50 (HCoV-NL63 M^pro; reported compound): […]
